{"source": "paper PMC4741889", "about": "“Ligand-based chemoinformatic discovery of a novel small molecule inhibitor targeting CDC25 dual specificity phosphatases and displaying in vitro efficacy against melanoma cells” (Oncotarget, 2015)", "type_in_all_cases": "cell-based, human", "key": {"[1]": {"tested_on": "p53 protein levels", "experiment": "Western blotting of p53 protein levels in SAN cells", "conditions": "100 μM, 16 h (not shown)"}, "[2]": {"tested_on": "pAkt protein levels", "experiment": "Western blotting of pAkt (Ser473) in SAN cells", "conditions": "100 μM, 1 or 2 h", "protocol": "The molecular mechanisms that regulate the cytotoxic potential of 7 in melanoma cells were further investigated through the evaluation of the activation state of protein kinase B (pAkt), one of the key proteins involved in the control and regulation of cell survival. To this aim, the protein levels of pAkt have been analyzed after 2- and 4-h incubation of A2058 cells with 7. […] It is known that Akt regulates the process of cell survival by phosphorylating different substrates, directly or indirectly involved in the apoptotic program. One of these targets is p53, a protein with a tumor-suppressor activity that regulates the cell cycle, as well as the expression of several genes involved in the apoptosis. […]\nA2058 cells were seeded into 6-well-plates (3 × 10^5 cells/plate) for 24 h at 37°C and then treated at different times with 100 μM compound 7 or 0.5% DMSO. […] The protein concentration was determined by the method of Bradford, using bovine serum albumin (BSA) as standard. […] Membranes were then analysed by an enhanced chemiluminescence reaction, using Super Signal West Pico kit (Pierce) according to manufacturer's instruction; signals were visualized by autoradiography. […]\n0.5% DMSO or 100 μM compound 7 for 1 or 2 h, were analyzed by Western blotting using an antibody raised against pAkt (Ser473). […]"}, "[3]": {"tested_on": "SAN cells", "experiment": "MTT cell growth rate, SAN melanoma cells", "conditions": "100 μM, 48 h, MTT", "protocol": "(§1) The human melanoma cell line A2058, kindly provided by CEINGE (Naples, Italy), and SAN cells were derived from lymph nodal metastases and grown in DMEM and RPMI 1640, respectively, supplemented with 10% FBS, 2 mM L-glutamine, 100 IU/mL penicillin G, and 100 μg/mL streptomycin in humidified incubator at 37°C under 5% CO2 atmosphere. All cells were split and seeded every three days and used during the exponential phase of growth. Cell treatments were always carried after 24 h from plating.\n(§2) The MTT assay was used to detect cell proliferation essentially as previously described. Briefly, A2058 and SAN cells were plated in 96-well microtiter plates (100 μL/well) at 4000 and 6000 cells/well, respectively. After 24-h seeding, cells were treated with the selected compounds added at 25, 50 or 100 μM concentration, or with 0.5% (v/v) DMSO as a vehicle control. After 24-h, 48-h or 72-h treatment, and upon the addition of 10 μL of MTT solution in the dark, the plate was incubated for 3 h at 37°C under CO2 atmosphere. After medium aspiration and solubilization of formazan crystals, absorbance was measured at 570 nm, using an ELISA plate reader (Bio-Rad, Milano, Italy)."}, "[4]": {"tested_on": "A2058 cells", "experiment": "MTT cell growth rate, A2058 melanoma cells", "conditions": "for cell growth rate: A2058, 100 μM", "protocol": "as §1, §2"}, "[5]": {"tested_on": "A2058 cells", "experiment": "Apoptosis, subdiploid DNA content by PI flow cytometry, A2058 cells", "description": "PI incorporation followed by flow cytometric analysis was used to detect the effect of 7 on the number of nuclei with a sub-diploid content, a typical hallmark of apoptosis. A time-dependent increase of apoptosis was evident in both A2058 and SAN cells and in particular, the effect of 7 on cell death program was already evident after 24-h treatment (Figure 7). […] To further investigate on the capacity of 7 to induce apoptosis, the enzymatic activity of caspase-3, the final effector of apoptotic program, was monitored.\n[…] After each treatment, cells were harvested with trypsin, centrifuged and the pellet was resuspended in phosphate-buffered saline (PBS). For cell cycle analysis, cells were fixed with 70% (v/v) cold ethanol and stored at −20°C for 1 h. Then, cells were washed with cold PBS, centrifuged and the pellets were resuspended in 200 μL of a non-lysis solution containing 50 μg/mL PI. For the evaluation of apoptosis, cells were not fixed in ethanol and directly resuspended in 200 μL of a hypotonic lysis solution containing 50 μg/mL PI. After incubation at 4°C for 30 min, cells were analyzed with a FACScan flow cytometer (Becton Dickinson) for evaluating the distribution in cell cycle phases or the presence of nuclei with a DNA content lower than the diploid."}, "[6]": {"tested_on": "CDC25C protein levels", "experiment": "Western blotting of CDC25C protein levels in A2058 cells", "conditions": "A2058, 100 μM, from 4 h up to 16 h", "protocol": "To better investigate the effect of this inhibitor at the molecular level, we evaluated if the treatment of A2058 cells with 7 affected also the protein levels of the three CDC25 forms. […] On the other hand, the protein levels of CDC25B were unaffected by treatment of A2058 cells with 7 up to 16 h.\nA2058 cells were seeded into 6-well-plates (3 × 10^5 cells/plate) for 24 h at 37°C and then treated at different times with 100 μM compound 7 or 0.5% DMSO. After treatment, cells were harvested, washed with PBS and then lysed in ice-cold modified radio immunoprecipitation assay (RIPA) buffer (50 mM Tris-HCl, pH 7.4, 150 mM NaCl, 1% Nonidet P-40, 0.25% sodium deoxycholate, 1 mM Na3VO4 and 1 mM NaF), supplemented with protease inhibitors and incubated for 30 min on ice. The supernatant obtained after centrifugation at 12,000 rpm for 30 min at 4°C constituted the total protein extract. The protein concentration was determined by the method of Bradford, using bovine serum albumin (BSA) as standard. Equal amounts of total protein extracts were used for Western blot analysis. […] Membranes were then analysed by an enhanced chemiluminescence reaction, using Super Signal West Pico kit (Pierce) according to manufacturer's instruction; signals were visualized by autoradiography."}, "[7]": {"tested_on": "CDC25C protein levels", "experiment": "Western blotting of CDC25C protein levels in SAN cells", "conditions": "100 μM, 1, 2 or 4 h"}}, "data": [{"compound": "O=C(O)C1CCCCC1c1c2ccc(=O)cc-2oc2cc(O)ccc12", "note": "(centres unmarked) [Compound 7, 2-(6-hydroxy-3-oxo-3H-xanthen-9-yl)cyclohexanecarboxylic acid]", "values": [{"measurement": "p53 protein level", "setting": "[1]", "value": "higher level of this protein"}, {"measurement": "Akt activation (pAkt)", "setting": "[2]", "value": "early reduction of Akt activation"}, {"measurement": "cell growth rate", "setting": "[3]", "value": "significant reduction of cell growth rate"}, {"measurement": "cell growth rate", "setting": "[4]; 48 h, MTT", "value": "significant reduction of the cell growth rate"}, {"measurement": "cell growth rate", "setting": "[4]; 72 h, MTT (data not shown)", "value": "significant reduction of cell growth rate"}, {"measurement": "minimum concentration of inhibitor that caused an evident cytotoxic activity", "setting": "[4]; A2058, 25, 50 or 100 μM tested, 48 h (Supplementary Figure S2)", "value": 100, "unit": "µM"}, {"measurement": "level of apoptosis caused by 7 in the presence of Z-VAD-FMK", "setting": "[5]; A2058, 100 μM 7 + 100 μM Z-VAD-FMK, 48 h", "value": "significantly decreased"}, {"measurement": "apoptosis (nuclei with sub-diploid content)", "setting": "[5]; A2058, 100 μM, 24-72 h", "value": "increase of apoptosis became significant at 48 h"}, {"measurement": "apoptosis after NAC pre-treatment", "setting": "[5]; A2058, NAC pre-treatment, 100 μM 7, 48 h", "value": "in a great part reverted"}, {"measurement": "CDC25C protein levels", "setting": "[6]", "value": "progressive and significant reduction of CDC25C protein levels"}, {"measurement": "CDC25C protein levels", "setting": "[7]", "value": "earlier decrease of CDC25C protein levels"}]}]}
